Experimental data published in article PMC3289519 (Bioorganic & medicinal chemistry letters, 2012).

Columns and labels:
[1] = test system: Toxo/CpIMPDH, strain that depends on CpIMPDH; format: cell-based, Toxoplasma gondii; details: in words
[2] = test system: human IMPDH1; details: human IMPDH1, no detectable activity; cited from earlier work
[3] = test system: human IMPDH2; details: human IMPDH2, no detectable activity; cited from earlier work
[4] = test system: C. parvum; details: anticryptosporidial activity, literature values; cited from earlier work

SMILES | activity against T. gondii/CpIMPDH [1] | further results
O=C(Cn1c(-c2cscn2)nc2ccccc21)Nc1ccc2ccccc2c1 [Compound C90] | sub-micromolar | 
O=C(Cn1c(-c2nccs2)nc2ccccc21)Nc1ccc(Cl)c(Cl)c1 [Compound C84] | sub-micromolar | 
COc1ccc(NC(=O)Cn2c(-c3cscn3)nc3ccccc32)cc1 [C] |  | IC50 [2]: > 50 µM; IC50 [3]: > 50 µM
O=C(Cn1c(-c2nccs2)nc2ccccc21)Nc1ccc(Br)cc1 [Compound C64] | sub-micromolar | 
NC[C@@H]1O[C@H](O[C@H]2[C@@H](O)[C@H](O[C@@H]3[C@@H](O)[C@H](N)C[C@H](N)[C@H]3O[C@H]3O[C@H](CO)[C@@H](O)[C@H](O)[C@H]3N)O[C@@H]2CO)[C@H](N)[C@@H](O)[C@@H]1O [paromomycin] |  | EC50 [4]: 65 to 130 µM
O=C(Cn1c(-c2ccccn2)nc2ccccc21)Nc1ccc2ccccc2c1 [Compound C91] | sub-micromolar | 
O=C(Cn1c(-c2nccs2)nc2ccccc21)Nc1ccc2ccccc2c1 [Compound C97] | sub-micromolar | 
